Reference: ChEMBL document CHEMBL1201862, “PubChem BioAssay data set” (2004)
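Each compound was tested at five concentrations against cells in 96-well plates for 48 hours. GI50 marks 50% less growth.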 Active and inactive are the calls of the source. No stated cut-off is given here; in the data, active = GI50 up to about 1.1 µM and inactive = higher.

Assays:
Experiment in all cases: NCI-60 cell line screen, 48 h
K562 = system: K562
SNB-19 = system: SNB-19
SK-MEL-28 = system: SK-MEL-28
BT-549 = system: BT-549
SF-295 = system: SF-295
NCI-H23 = system: NCI-H23
SN12C = system: SN12C
NCI-H460 = system: NCI-H460
A549 = system: A549
OVCAR-4 = system: OVCAR-4
OVCAR-5 = system: OVCAR-5
RPMI-8226 = system: RPMI-8226
SF-268 = system: SF-268
SK-MEL-5 = system: SK-MEL-5
UO-31 = system: UO-31
DU-145 = system: DU-145
HCC 2998 = system: HCC 2998

Row | SMILES | GI50 (K562) | GI50 (SNB-19) | GI50 (SK-MEL-28) | GI50 (BT-549) | GI50 (SF-295) | GI50 (NCI-H23) | GI50 (SN12C) | GI50 (NCI-H460) | GI50 (A549) | GI50 (OVCAR-4) | GI50 (OVCAR-5) | GI50 (RPMI-8226) | GI50 (SF-268) | GI50 (SK-MEL-5) | GI50 (UO-31) | GI50 (DU-145) | GI50 (HCC 2998)
1 | Sc1nnc(SCc2ccccc2Cl)c2nc[nH]c12 | > 100 µM (inactive) | > 100 µM (inactive) | > 100 µM (inactive) | > 100 µM (inactive) | > 100 µM (inactive) | > 100 µM (inactive) | > 100 µM (inactive) | > 100 µM (inactive) | > 100 µM (inactive) | > 100 µM (inactive) | > 100 µM (inactive) | > 100 µM (inactive) | > 100 µM (inactive) | > 100 µM (inactive) | > 100 µM (inactive) | > 100 µM (inactive) | 
2 | Cc1ccc([C@@H]2[C@@H](C(=O)c3ccccn3)[C@H](c3ccc(C)cc3)C[C@](O)(c3ccccn3)[C@H]2C(=O)c2ccccn2)cc1 |  | 3.04 µM (inactive) | 6.11 µM (inactive) | > 27.4 µM (inactive) | 4.21 µM (inactive) | 18.8 µM (inactive) | 3.18 µM (inactive) | 2.27 µM (inactive) | 2.77 µM (inactive) | 4.98 µM (inactive) | 8.93 µM (inactive) |  | 0.946 µM (active) | 3.71 µM (inactive) | 2.32 µM (inactive) | 2.17 µM (inactive) | 7.35 µM (inactive)
3 | Cc1cccc(/C=N\NC(=S)N2CCCCC2)n1 | < 0.01 µM (active) | 0.665 µM (active) | 0.532 µM (active) |  | 0.211 µM (active) | 0.0689 µM (active) | 0.181 µM (active) | 0.22 µM (active) | 0.158 µM (active) | < 0.01 µM (active) | < 0.01 µM (active) | 0.0128 µM (active) | 0.0451 µM (active) | 0.0229 µM (active) | 0.216 µM (active) | 0.362 µM (active) | 9.77 µM (inactive)
4 | CCCn1c(=O)c(N2CCN(c3ccccc3)CC2)nc2sc3ccccc3c21 |  | > 100 µM (inactive) | > 100 µM (inactive) | 97.3 µM (inactive) | > 100 µM (inactive) | > 100 µM (inactive) | > 100 µM (inactive) | > 100 µM (inactive) | > 100 µM (inactive) | > 100 µM (inactive) | > 100 µM (inactive) |  | > 100 µM (inactive) | > 100 µM (inactive) | > 100 µM (inactive) | > 100 µM (inactive) | 
5 | COc1ccc(N[C@H]([C@@H](c2ccccc2)[S+]([O-])c2ccc(C)cc2)C(F)(F)F)cc1 (stereo partly drawn) | 28.4 µM (inactive) | 33.1 µM (inactive) | > 100 µM (inactive) | 38.6 µM (inactive) | 82.8 µM (inactive) | 41.5 µM (inactive) | 71.8 µM (inactive) | 50.1 µM (inactive) | 32.7 µM (inactive) | 26 µM (inactive) | 40.6 µM (inactive) |  |  | 35.8 µM (inactive) | 59.8 µM (inactive) | 62.8 µM (inactive) | > 100 µM (inactive)
6 | O=c1cc(-c2ccncc2)[nH]c2cc3c(cc12)OCO3 |  | > 100 µM (inactive) | > 100 µM (inactive) |  | > 100 µM (inactive) | > 100 µM (inactive) | > 100 µM (inactive) | > 100 µM (inactive) | > 100 µM (inactive) | > 100 µM (inactive) | > 100 µM (inactive) | > 100 µM (inactive) | > 100 µM (inactive) | > 100 µM (inactive) | > 100 µM (inactive) | > 100 µM (inactive) | > 100 µM (inactive)
7 | Nc1ccc(-c2nnc(-c3c(Cl)c(Cl)c(Cl)c(Cl)c3-c3nc4cc(C(=O)c5ccccc5)ccc4[nH]3)o2)cc1 | 8 µM (inactive) | 27.2 µM (inactive) | 28.5 µM (inactive) | 24.6 µM (inactive) | 19.5 µM (inactive) | 33 µM (inactive) | 16.8 µM (inactive) |  | 28.1 µM (inactive) | 24.5 µM (inactive) | 37.9 µM (inactive) | 14.8 µM (inactive) | 28.5 µM (inactive) | 11.1 µM (inactive) | 35.7 µM (inactive) | 24.8 µM (inactive) | 
8 | Cc1ccc(C(=O)O)c(/C=C2\Cc3cc(C)cc(C)c3C2=O)c1 | 52.4 µM (inactive) | > 100 µM (inactive) | > 100 µM (inactive) | > 100 µM (inactive) | > 100 µM (inactive) |  | 49.4 µM (inactive) | 49.2 µM (inactive) | 78.2 µM (inactive) |  |  | 73.6 µM (inactive) | > 100 µM (inactive) | 35.7 µM (inactive) | 92.3 µM (inactive) | > 100 µM (inactive) | 70.1 µM (inactive)
9 | COc1cc(C=O)cc(/C=N/c2ccccn2)c1O | 61.1 µM (inactive) | 17.4 µM (inactive) | 3.32 µM (inactive) |  | 5.47 µM (inactive) | > 100 µM (inactive) | 12.6 µM (inactive) | 19.5 µM (inactive) | 32 µM (inactive) | > 100 µM (inactive) | 15.8 µM (inactive) | 4.85 µM (inactive) | 3.37 µM (inactive) | 2.39 µM (inactive) | 3.34 µM (inactive) | > 100 µM (inactive) | 46.1 µM (inactive)
10 | O=[N+]([O-])c1cc(C(F)(F)F)ccc1S(=O)(=O)N[C@@H]1CCCC[C@H]1NS(=O)(=O)c1ccc(C(F)(F)F)cc1[N+](=O)[O-] |  | 5.68 µM (inactive) | 5.55 µM (inactive) | 2.23 µM (inactive) | 2.86 µM (inactive) | 2.28 µM (inactive) | 3.45 µM (inactive) | 3.57 µM (inactive) | 4.16 µM (inactive) | 2.61 µM (inactive) | 56.2 µM (inactive) |  | 2.49 µM (inactive) | 3.58 µM (inactive) | 3.56 µM (inactive) | 4.22 µM (inactive) | 4.28 µM (inactive)
11 | Nc1nc2c(=O)c3ccccc3sc2s1 | 34.8 µM (inactive) | 41.9 µM (inactive) | > 100 µM (inactive) | 41.4 µM (inactive) | 44.1 µM (inactive) | 48.5 µM (inactive) | 84.3 µM (inactive) | 35.1 µM (inactive) | 33.7 µM (inactive) |  | 80.7 µM (inactive) | 33.6 µM (inactive) | 40.6 µM (inactive) | 35.5 µM (inactive) | 35.6 µM (inactive) | 68.9 µM (inactive) | 
12 | COc1ccc(NC(=O)N(C)CC2(O)CCC(C(C)(C)C)CC2)cc1 (stereo not drawn) | 66.2 µM (inactive) | > 100 µM (inactive) | > 100 µM (inactive) | 63.4 µM (inactive) | 29 µM (inactive) | 99.3 µM (inactive) | > 100 µM (inactive) | 59.6 µM (inactive) | 90.6 µM (inactive) | 66.2 µM (inactive) | > 100 µM (inactive) | 21 µM (inactive) | > 100 µM (inactive) |  | 30.6 µM (inactive) | > 100 µM (inactive) | 
13 | Cc1nn(-c2ccccc2)c(C)c1/C=N/N=C1\S/C(=C\c2ccc(Cl)cc2)C(=O)N1c1ccccc1 | 7.91 µM (inactive) | 48.8 µM (inactive) | > 100 µM (inactive) | > 100 µM (inactive) | > 100 µM (inactive) | 7.38 µM (inactive) | > 100 µM (inactive) | > 100 µM (inactive) | 10.7 µM (inactive) | 2.15 µM (inactive) | > 100 µM (inactive) | 26.4 µM (inactive) | 51.5 µM (inactive) | > 100 µM (inactive) | > 100 µM (inactive) | > 100 µM (inactive) | 
14 | O=c1c2cc(Br)cc(Br)c2[nH]c(=S)n1-c1ccc(/N=N/c2ccc(O)c3cccnc23)cc1 | 10.7 µM (inactive) | 19.7 µM (inactive) | 76.9 µM (inactive) |  | 64.9 µM (inactive) |  | 44.5 µM (inactive) |  | 17.8 µM (inactive) | 57.9 µM (inactive) | 74.5 µM (inactive) | 33.9 µM (inactive) | 17.2 µM (inactive) | 11.9 µM (inactive) | 34.9 µM (inactive) | 33 µM (inactive) | 
15 | CC(C)(C)[Si](C)(C)OCC1OC(n2cnc3c(NC(=O)c4ccccc4)ncnc32)CC1O (stereo not drawn) | 23.4 µM (inactive) | 28.6 µM (inactive) | 36.7 µM (inactive) |  | 24.4 µM (inactive) | 48.9 µM (inactive) | 33.4 µM (inactive) | 32.7 µM (inactive) | 42.7 µM (inactive) | 24 µM (inactive) | 36.7 µM (inactive) | 21.8 µM (inactive) | 64.4 µM (inactive) | 17.5 µM (inactive) | 1.47 µM (inactive) | 64 µM (inactive) | 27.7 µM (inactive)
16 | COc1ccc(/N=N/c2c(C)c(C#N)c(=S)n(C3OC(CO)C(O)C(O)C3O)c2C)cc1 (stereo not drawn) | 29 µM (inactive) | 38.3 µM (inactive) | 30.8 µM (inactive) | 32.7 µM (inactive) | 52.1 µM (inactive) | 35.6 µM (inactive) |  | 35 µM (inactive) | 52.1 µM (inactive) | 57.4 µM (inactive) | > 100 µM (inactive) | 39.2 µM (inactive) | 45.9 µM (inactive) | 14.5 µM (inactive) | 41.9 µM (inactive) | 44.7 µM (inactive) | 
17 | COc1c2cc([N+](=O)[O-])cc1CN(C(=O)C(F)(F)F)CCOCCN(C(=O)C(F)(F)F)C2 |  | > 100 µM (inactive) | > 100 µM (inactive) | 70.6 µM (inactive) | > 100 µM (inactive) | > 100 µM (inactive) | > 100 µM (inactive) | > 100 µM (inactive) | > 100 µM (inactive) | > 100 µM (inactive) | > 100 µM (inactive) |  | > 100 µM (inactive) | > 100 µM (inactive) | > 100 µM (inactive) | > 100 µM (inactive) | 
18 | CSC1=N/C(=C\c2ccco2)C(=O)N1CN1CCCCC1 | 59.6 µM (inactive) | 87.3 µM (inactive) | > 100 µM (inactive) |  | > 100 µM (inactive) | > 100 µM (inactive) | 65.3 µM (inactive) |  | > 100 µM (inactive) |  | > 100 µM (inactive) | 35.6 µM (inactive) | 92.3 µM (inactive) | 55.1 µM (inactive) | > 100 µM (inactive) | 81.3 µM (inactive) | 
